Experiments:
in vivo = conditions: mouse, mice, oral
Experimental: The toxicity was determined on mice after oral adminstration.

rats = assay: antiphlogistic effect on rats, method of Winter; assay type: in vivo; conditions: oral; for ED50: Rattus norvegicus
Experimental: The antiphlogistic effects of the new compounds were determined on rats by the method of Winter [Proc. Soc. Exp. Biol. Med. 111, 544 (1962)]. The compounds were administered orally to the animals.

mice [1] = assay: tetrabenazine antagonizing effect (inhibition of ptosis provoked by tetrabenazine) on mice, method of Brodie; assay type: in vivo; conditions: oral
mice [2] = assay: narcosis potentiating effect on mice, method of Kaergaard; conditions: for ED50: Mus musculus, po; for Therapeutical index: narcosis potentiating effect, mice, oral
Experimental: The narcosis potentiating effects was tested on mice according to the method of Kaergaard [Arch. […] The compounds under examination were administered orally to the animals.

mice [3] = assay: motility inhibiting effect on mice, method of Borsy et al.; assay type: in vivo; conditions: for ED50: Mus musculus
Experimental: The motility inhibiting effects of the new compounds were tested on mice by the method of Borsy et al. [Int. Pharmacodyn. […] The compounds to be tested were administered orally to the animals.

mice [4] = assay: animal or person; assay type: in vivo; conditions: potentiation of the toxicity of yohimbine, oral; for ED50: Mus musculus
Experimental: The ability of the compounds in potentiating the toxicity of yohimbine was tested on mice by the method of Quinton [Brit. J. Pharmacol. 21, 51 (1963)]. The compounds were administered orally to the animals.

mice [5] = assay: analgesic effect on mice, method of Newbould; assay type: in vivo; conditions: oral; for ED50: Mus musculus
Experimental: The analgesic effects of the new compounds were tested on mice after oral administration, as described by Newbould [Brit.

[6] = motility inhibiting effect, mice, oral

Row | Compound | LD50 (in vivo) [mg/kg] | ED50 (rats) [mg/kg] | Therapeutical index (rats) | Therapeutical index (mice [1]) | ED50 (mice [2]) [mg/kg] | Therapeutical index (mice [2]) | Therapeutical index (mice [3]; [6]) | ED50 (mice [4]) [mg/kg] | Therapeutical index (mice [4]) | ED50 (mice [5]) [mg/kg] | Therapeutical index (mice [5]) | ED50 (mice [1]; Mus musculus) [mg/kg] | ED50 (mice [3]; motility inhibiting effect, mice, oral, read-out: ED50) [mg/kg] | ED50 (mice [3]; po) [mg/kg]
1 | CCC(=O)N1C(N2CCOCC2)=Nc2ncccc2N1C(=O)CC [Example 1, 3-morpholino-1,2-dipropionyl-1,2-dihydro-pyrido[2,3-e]-as-triazine] | 1600 | 300 | 5.3 | 5 | 54 | 29.6 | 5 | 320 | 5 | 300 | 5.3 | – | – | –
2 | CCC(=O)N1NC(N(C(C)C)C(C)C)=Nc2ncccc21 [Example 2, 3-diisopropylamino-1-propionyl-1,2-dihydro-pyrido[2,3-e]-as-triazine] | 2000 | 450 | 4.4 | 13.3 | 40 | 50 | 8 | 140 | 14.3 | 350 | 5.7 | 150 | 250 | –
3 | CCCC(C)(COC(N)=O)COC(N)=O [Meprobamate, reference compound] | – | – | – | – | 250 | 4.2 | 4.1 | – | – | – | – | – | – | 270
4 | CC(=O)Nc1ccc(O)cc1 [Paracetamol, reference compound] | – | – | – | – | – | – | – | – | – | 180 | – | – | – | –

Reference: patent US4324786A, “Pyrido[2,3-e]-as-triazine derivatives and pharmaceutical compositions” (Egyt Gyogyszervegyeszeti Gyar, priority 1979, dated 1982)
